Test results from patent US11667649B2, “Heteroaromatic macrocyclic ether chemotherapeutic agents” (Nuvalent, Inc., priority 2020, dated 2023).

System: TPM3-NTRK1-wt IC50 / primary target (e.g. CD74-ROS1-wt) IC50, Ba/F3 cells
Assay: Cell assay TRKA selectivity (TRKA potency divided by primary target potency)
Type: cell-based
Conditions: for TPM3-NTRK1-wt/CD74-ROS1-G2032R: TRKA selectivity ratio: TPM3-NTRK1-wt IC50 / CD74-ROS1-G2032R IC50, Ba/F3 cells; for TPM3-NTRK1-wt/CD74-ROS1-wt: TRKA selectivity ratio: TPM3-NTRK1-wt IC50 / CD74-ROS1-wt IC50, Ba/F3 cells; for TPM3-NTRK1-wt/EML4-ALK-L1196M-G1202R: TRKA selectivity ratio: TPM3-NTRK1-wt IC50 / EML4-ALK-L1196M-G1202R IC50, Ba/F3 cells; for TPM3-NTRK1-wt/EML4-ALK-wt: TRKA selectivity ratio: TPM3-NTRK1-wt IC50 / EML4-ALK-wt IC50, Ba/F3 cells
Text: Genes encoding CD74-ROS1 wild-type (wt), CD74-ROS1 G2032R, CD74-ROS1 S1986F, CD74-ROS1 L2026M, CD74-ROS1 D2033N, EML4-ALK wt (variant 1), EML4-ALK G1202R (variant 1), EML4-ALK L1196M/G1202R (variant 1), EML4-ALK G1202R/G1269A (variant 1), EML4-ALK G1202R/L1198F (variant 1), and TPM3-TRKA were synthesized at GeneRay, cloned into the retroviral construct pMSCV-puro (Biovector), and packaged into retroviral particles. The virus was used to infect Ba/F3 cells (RIKEN) at multiplicity of infection=1 for 1 day. Infected cells were rescued in media (RPMI-1640 with 10% fetal bovine serum and 1% streptomycin and penicillin) supplemented with mouse IL-3 (10 ng/mL) for 2 days, and stable cell lines were selected by IL-3 withdrawal and puromycin (0.8 μg/mL) for 7 days. Monoclones were selected by single-cell dilution in IL-3-free medium containing puromycin (0.8 μg/mL). Transformation of desired genes was confirmed by Sanger sequencing and western blot using the following antibodies: ROS1 (CST #3287), ALK (CST #3633), and pan-TRK (Abcam #76291).
Stable cells were plated at 1,000 cells/well (40 μL) in a 384-well plate for 1 day. Test compounds (40 nL) were then added in a 3-fold dilution series using the TECAN EVO200 liquid handler and incubated for 72 hours. Plates were equilibrated at room temperature for 15 minutes followed by addition of 40 μL CellTiter-Glo reagent (Promega). Luminescence was measured on a plate reader. Half-maximal inhibitory concentration (IC50) was calculated from percent inhibition and inhibitor concentration using four-parameter logistic regression. […] Exemplary data is given in Table 4 (nd is not determined).
TRKA selectivity was calculated by dividing a compound's TRKA potency by its primary target potency (e.g. TPM3-NTRK1-wt IC50/CD74-ROS1-wt IC50). Compound selectivity can be interpreted by binning ratio values: bin A for very high selectivity, ratio>30-fold; bin B for high selectivity, ratio>10-fold; bin C for moderate selectivity, ratio≥1; and bin D for low selectivity, ratio<1. […] (nd=not determined).

Compound	TPM3-NTRK1-wt/CD74-ROS1-G2032R	TPM3-NTRK1-wt/CD74-ROS1-wt	TPM3-NTRK1-wt/EML4-ALK-L1196M-G1202R	TPM3-NTRK1-wt/EML4-ALK-wt
Cc1nc2c(s1)Cc1c(c(C#N)nn1C)-c1cnc(N)c(c1)O[C@H](C)c1cc(F)ccc1-2 [Example 82, (19R)-22-amino-16-fluoro-5,10,19-trimethyl-20-oxa-9-thia-4,5,11,23-tetraazapentacyclo[19.3.1.0^2,^6.0^8,^12.0^13,^18]pentacosa-1(24),2(6),3,8(12),10,13,15,17,21(25),22-decaene-3-carbonitrile]	A (bin A for very high selectivity, ratio>30-fold)	A (bin A for very high selectivity, ratio>30-fold)	B (bin B for high selectivity, ratio>10-fold)	A (bin A for very high selectivity, ratio>30-fold)
CCn1ncc2c1-c1cnc(N)c(c1)O[C@H](C)c1cc(F)ccc1-c1c(cnn1C)C2 [Example 32, (19R)-3-ethyl-16-fluoro-11,19-dimethyl-20-oxa-3,4,10,11,23-pentaazapentacyclo[19.3.1.0^2,^6.0^8,^12.0^13,^18]pentacosa-1(24),2(6),4,8(12),9,13,15,17,21(25),22-decaen-22-amine]	A (bin A for very high selectivity, ratio>30-fold)	A (bin A for very high selectivity, ratio>30-fold)	C (bin C for moderate selectivity, ratio≥1)	B (bin B for high selectivity, ratio>10-fold)
CCn1nnc2c1-c1cnc(N)c(c1)O[C@H](C)c1cc(F)ccc1-c1nc(C)sc1C2 [Example 78, (19R)-3-ethyl-16-fluoro-10,19-dimethyl-20-oxa-9-thia-3,4,5,11,23-pentaazapentacyclo[19.3.1.0^2,^6.0^8,^12.0^13,^18]pentacosa-1(24),2(6),4,8(12),10,13,15,17,21(25),22-decaen-22-amine]	A (bin A for very high selectivity, ratio>30-fold)	A (bin A for very high selectivity, ratio>30-fold)	B (bin B for high selectivity, ratio>10-fold)	A (bin A for very high selectivity, ratio>30-fold)
C[C@H]1Oc2cc(cnc2N)-c2c(nn(C)c2CC2CC2)Cc2ccnn2-c2ccc(F)cc21 [Example 177, (19R)-3-(cyclopropylmethyl)-16-fluoro-4,19-dimethyl-20-oxa-4,5,11,12,23-pentaazapentacyclo[19.3.1.0^2,^6.0^8,^12.0^13,^18]pentacosa-1(24),2,5,8,10,13,15,17,21(25),22-decaen-22-amine]	A (bin A for very high selectivity, ratio>30-fold)	A (bin A for very high selectivity, ratio>30-fold)	B (bin B for high selectivity, ratio>10-fold)	A (bin A for very high selectivity, ratio>30-fold)
CCn1ncc2c1-c1cnc(N)c(c1)O[C@H](C)c1cc(F)ccc1-c1nn(C)c(C)c1C2 [Example 87, (19R)-3-ethyl-16-fluoro-9,10,19-trimethyl-20-oxa-3,4,10,11,23-pentaazapentacyclo[19.3.1.0^2,^6.0^8,^12.0^13,^18]pentacosa-1(24),2(6),4,8,11,13,15,17,21(25),22-decaen-22-amine]	A (bin A for very high selectivity, ratio>30-fold)	A (bin A for very high selectivity, ratio>30-fold)	C (bin C for moderate selectivity, ratio≥1)	A (bin A for very high selectivity, ratio>30-fold)
C[C@H]1Oc2cc(cnc2N)-c2c(nn(C)c2C#N)Cc2cn(C)nc2-c2ccc(F)cc21 [Example 111, (19R)-22-amino-16-fluoro-4,10,19-trimethyl-20-oxa-4,5,10,11,23-pentaazapentacyclo[19.3.1.0^2,^6.0^8,^12.0^13,^18]pentacosa-1(24),2,5,8,11,13,15,17,21(25),22-decaene-3-carbonitrile]	B (bin B for high selectivity, ratio>10-fold)	A (bin A for very high selectivity, ratio>30-fold)	C (bin C for moderate selectivity, ratio≥1)	A (bin A for very high selectivity, ratio>30-fold)
Cc1nc2c(s1)Cc1cnn(C(F)F)c1-c1cnc(N)c(c1)O[C@H](C)c1cc(F)ccc1-2 [Example 72, (19R)-3-(difluoromethyl)-16-fluoro-10,19-dimethyl-20-oxa-9-thia-3,4,11,23-tetraazapentacyclo[19.3.1.0^2,^6.0^8,^12.0^13,^18]pentacosa-1(24),2(6),4,8(12),10,13,15,17,21(25),22-decaen-22-amine]	A (bin A for very high selectivity, ratio>30-fold)	A (bin A for very high selectivity, ratio>30-fold)	C (bin C for moderate selectivity, ratio≥1)	A (bin A for very high selectivity, ratio>30-fold)
CCn1ncc2c1-c1cnc(N)c(c1)OCc1cc(F)ccc1-n1nccc1C2 [Example 41, 3-ethyl-16-fluoro-20-oxa-3,4,11,12,23-pentaazapentacyclo[19.3.1.0^2,^6.0^8,^12.0^13,^18]pentacosa-1(24),2(6),4,8,10,13,15,17,21(25),22-decaen-22-amine]	A (bin A for very high selectivity, ratio>30-fold)	A (bin A for very high selectivity, ratio>30-fold)	B (bin B for high selectivity, ratio>10-fold)	A (bin A for very high selectivity, ratio>30-fold)
C[C@H]1Oc2cc(cnc2N)-c2c(c(C#N)nn2CC2CC2)Cc2cccnc2-c2ccc(F)cc21 [Example 123, (20R)-23-amino-3-(cyclopropylmethyl)-17-fluoro-20-methyl-21-oxa-3,4,12,24-tetraazapentacyclo[20.3.1.0^2,^6.0^8,^13.0^14,^19]hexacosa-1(25),2(6),4,8(13),9,11,14,16,18,22(26),23-undecaene-5-carbonitrile]	C (bin C for moderate selectivity, ratio≥1)	A (bin A for very high selectivity, ratio>30-fold)	C (bin C for moderate selectivity, ratio≥1)	A (bin A for very high selectivity, ratio>30-fold)
CCn1ncc2c1-c1cnc(N)c(c1)O[C@H](C)c1cc(F)ccc1-c1ncccc1C2 [Example 3, (20R)-3-ethyl-17-fluoro-20-methyl-21-oxa-3,4,12,24-tetraazapentacyclo[20.3.1.0^2,^6.0^8,^13.0^14,^19]hexacosa-1(25),2(6),4,8(13),9,11,14,16,18,22(26),23-undecaen-23-amine]	A (bin A for very high selectivity, ratio>30-fold)		B (bin B for high selectivity, ratio>10-fold)	A (bin A for very high selectivity, ratio>30-fold)
C[C@H]1Oc2cc(cnc2N)-c2c(C#N)ncn2Cc2ccncc2-c2ccc(F)cc21 [Example 11, (20R)-23-amino-17-fluoro-20-methyl-21-oxa-4,6,11,24-tetraazapentacyclo[20.3.1.0^2,^6.0^8,^13.0^14,^19]hexacosa-1(25),2,4,8(13),9,11,14,16,18,22(26),23-undecaene-3-carbonitrile]	A (bin A for very high selectivity, ratio>30-fold)	A (bin A for very high selectivity, ratio>30-fold)	C (bin C for moderate selectivity, ratio≥1)	A (bin A for very high selectivity, ratio>30-fold)
CCn1ncc2c1-c1cnc(N)c(c1)O[C@H](C)c1cc(F)ccc1-n1nccc1C2 [Example 33, (19R)-3-ethyl-16-fluoro-19-methyl-20-oxa-3,4,11,12,23-pentaazapentacyclo[19.3.1.0^2,^6.0^8,^12.0^13,^18]pentacosa-1(24),2(6),4,8,10,13,15,17,21(25),22-decaen-22-amine]	A (bin A for very high selectivity, ratio>30-fold)	A (bin A for very high selectivity, ratio>30-fold)	B (bin B for high selectivity, ratio>10-fold)	A (bin A for very high selectivity, ratio>30-fold)
